# Earlier results as cited in patent US20260131010A1, “MENIN PROTEOLYSIS TARGETING CHIMERAS (PROTACS)” (Board of Regents, The University of Texas System, priority 2022, published 2026).
# Test system: MLL leukemias
# Settings: Borkin, et al. Cancer Cell 2015, 27(4) 589-602
structure (smiles),measurement,value
Cc1c(CN2CCC(Nc3ncnc4sc(CC(F)(F)F)cc34)CC2)ccc2c1cc(C#N)n2Cc1cn[nH]c1 [MI-503],efficacy in mouse models of MLL leukemias,effective
